Measured values: patent publication US20260224482A1, “USE OF OXIDATIVE PRECURSORS IN POULTRY FARMING” (AGA NANOTECH LTD, priority 2023, published 2026)
Entries after “also recorded” stand apart in the source; their conditions may differ.

Experiments:
[1] = system: total bacterial number in crop content; assay: Total bacterial number by qPCR targeting 16S rRNA gene; assay type: in vivo, chickens; conditions: in-water for one week via SP and TAED precursors; P=0.02
Method: (§1) A total of 96 Ross 308 male day-old chickens were used during the trial duration (randomized block design with 2 rooms, 12 pens per room, 4 birds per pen and 4 pens per level of inclusion), whilst PAA treatment was administered during the last week. Six different PAA levels of inclusion were tested through in-water daily administration of SP and TAED precursors. Possible PAA effect on body weight gain (BWG), FCR (feed conversion ratio), feed/water intake and BN (bacterial number) were assessed through fitting linear mixed model (i.e. treatment as fixed effect and hierarchy of room/pen/bird when possible as random effect). Longitudinal data were used when repeated measures were taken. Total bacterial number in DNA extracted from crop, jejunum and caecal content was calculated through qPCR targeting 16S rRNA gene (V3 region). Study design and protocol were approved by SRUC Animal Welfare and Review Body (POU AE 20-2019).

[2] = system: Ross 308 male day-old chickens; assay: In-water PAA in chickens: performance and safety; assay type: in vivo
Method: as §1

CC(=O)OO [PAA, peracetic acid] was tested, and the “BN in the crop” value [1] was “reducing; also recorded: appears to be reduced by higher dosage”, the “effect on BWG from D7 to D14” value ([2]; PAA administered at 40 ppm, P=0.05) was “most evident effect” and the adverse effects ([2]; PAA in-water administration) was “no adverse effects”. For the same compound, the bird mortality ([2]; in-water PAA up to 50 ppm) was 0 ^0/0 and the BWG during treatment ([2]; in-water for one week via SP and TAED precursors, P=0.05) was “increased”.
